What was measured:
IOP [1] = settings: rabbits with normal IOP, cited from earlier work
IOP [2] = assay: Ocular hypotensive effect after instillation, alone or in combination, in rabbits (change from initial IOP); type: in vivo, Japanese white rabbits; settings: male JW rabbits, brinzolamide 1%, 50 μL; for persistence of ocular hypotensive action (FIG. 1): after 3 or 4 hours from instillation, 0.5% solution; for persistence of ocular hypotensive action (FIG. 2): after 4 and also 5 hours from instillation, 1.5% solution
Procedure: To examine usefulness of combination use of a Rho kinase inhibitor and a carbonic anhydrase inhibitor, the ocular hypotensive effects were compared by administering either of these drugs alone or both in combination to laboratory animals. (S)-(−)-1-(4-fluoro-5-isoquinolinesulfonyl)-2-methyl-1,4-homopiperazine-hydrochloride dihydrate was dissolved in physiological saline, and the solution was neutralized (pH 6.0) by adding sodium dihydrogenphosphate and sodium hydroxide to prepare a (S)-(−)-1-(4-fluoro-5-isoquinolinesulfonyl)-2-methyl-1,4-homopiperazine solution at a desired concentration. The commercially available “Eril® S Injection” (Asahi Kasei Pharma) was used as it was. The commercially available “Azopt® Ophthalmic Suspension 1%” (Alcon Japan Ltd.) was used as it was. The ocular hypotensive effect was examined after the combination use of (S)-(−)-1-(4-fluoro-5-isoquinolinesulfonyl)-2-methyl-1,4-homopiperazine and brinzolamide. As a control, the ocular hypotensive effect was also examined after the use of brinzolamide alone or (S)-(−)-1-(4-fluoro-5-isoquinolinesulfonyl)-2-methyl-1,4-homopiperazine alone. Similarly, the ocular hypotensive effect was examined after the combination use of hexahydro-1-(5-isoquinolinesulfonyl)-1H-1,4-diazepine and brinzolamide. As a control, the ocular hypotensive effect was also examined after the use of brinzolamide alone or hexahydro-1-(5-isoquinolinesulfonyl)-1H-1,4-diazepine alone. (S)-(−)-1-(4-fluoro-5-isoquinolinesulfonyl)-2-methyl-1,4-homopiperazine solution: 0.5% solution (instillation volume, 50 μL) Hexahydro-1-(5-isoquinolinesulfonyl)-1H-1,4-diazepine solution: fasudil hydrochloride hydrate injection (1.5% solution [trade name: Eril® S Injection]; instillation volume, 50 μL) Brinzolamide solution: brinzolamide ophthalmic solution ([trade name: Azopt® Ophthalmic Suspension 1%]; instillation volume, 50 μL) Laboratory animals: Japanese white rabbits (male JW rabbits, 5 animals per group) 1). One drop of 0.4% oxybuprocaine hydrochloride ophthalmic solution (trade name: Benoxil Ophthalmic Solution 0.4%) was instilled in both eyes of the laboratory animals for local anesthesia (only data for the instilled eyes are shown). 2) IOP was measured immediately before administration of the test compound solution as the initial IOP. 3) The brinzolamide solution was instilled in one eye of the laboratory animals, followed by the instillation of (S)-(−)-1-(4-fluoro-5-isoquinolinesulfonyl)-2-methyl-1,4-homopiperazine solution in the same eye. 4) At 1 hour, 2 hours, 3 hours, 4 hours, and 5 hours after the instillation of both drugs, one drop each of 0.4% oxybuprocaine hydrochloride ophthalmic solution was instilled in both eyes for local anesthesia, and IOP was measured. […]

Row | SMILES | time after instillation from which IOP is lowered (IOP [1]) | maximum IOP reduction (IOP [1]; instillation, concentration of 0.1%) | persistence of ocular hypotensive action (FIG. 1) (IOP [2]) | persistence of ocular hypotensive action (FIG. 2) (IOP [2])
1 | C[C@@H](N)c1ccc(C(=O)Nc2ccnc3[nH]ccc23)cc1 [Y-39983, 4-[(1R)-1-aminoethyl]-N-1H-pyrrolo[2,3-b]pyridin-4-ylbenzamide] | 1 h | 15 mmHg | – | –
2 | C[C@H]1CNCCCN1S(=O)(=O)c1cccc2cncc(F)c12 [(S)-(−)-1-(4-fluoro-5-isoquinolinesulfonyl)-2-methyl-1,4-homopiperazine] | – | – | ocular hypotensive effect disappeared | –
3 | O=S(=O)(c1cccc2cnccc12)N1CCCNCC1 [hexahydro-1-(5-isoquinolinesulfonyl)-1H-1,4-diazepine] | – | – | – | ocular hypotensive effect disappeared
4 | CCN[C@H]1CN(CCCOC)S(=O)(=O)c2sc(S(N)(=O)=O)cc21 [brinzolamide] | – | – | ocular hypotensive effect disappeared | ocular hypotensive effect disappeared
